According to US20220017478A1, “2-BENZOYLAMINOBENZAMIDE DERIVATIVES AS BCL-3 INHIBITORS” (University College Cardiff Consultants Limited, priority 2013, published 2022):

What was measured:
[1] = Cell Titre Blue viability assay, MDA-MB-231; conditions: human, MDA-MB-231 cells
Experimental: (§1) The viability of cells at experimental endpoints for particular assays was determined using the Cell Titre Blue reagent (Promega, Southampton, UK). This reagent measures the cellular metabolic activity using resazurin as an indicator dye. Viable cells, therefore metabolically active, will reduce resazurin into highly fluorescent resofurin. The resulting fluorescence levels are measured and indicate cell viability.
(§2) Cells were plated at low confluency into 96 well plates in 100 μl of complete growth media in triplicates and were incubated at 37° C. in 5% CO2 for the desired test exposure period. For each 100 μl of media in 96 well plates, 20 μl Cell Titre Blue reagent was added followed by incubation for an hour at 37° C. in 5% CO2. Fluorescence was then measured by setting excitation/emission wavelengths to 560/590 nm on a Flurostar Optima plate reader (BMG tabtech, Bucks, UK).
(§3) Cell toxicity was evaluated using the Cell Titre Blue viability assay over a range of molarities for 24 hrs.
(§4) Selected compounds were dissolved in DMSO and diluted to a highest concentration of 10 μM (0.1% DMSO). In all assays, a DMSO control was always used. Selected compounds were tested for cell toxicity in HEK-293 and MDA-MB-231 cells before being used in cell-based assays. Cell toxicity was evaluated using the Cell Titre Blue viability assay over a range of molarities for 24 hrs

[2] = Cell Titre Blue viability assay, HEK-293; format: cell-based; conditions: human, HEK-293 cells, HEK-293, 10 μM, vs DMSO
From the text: In all assays, a DMSO control was always used.

NF-κB activity = assay: NF-κB luciferase reporter assay in MDA-MB-231 cells overexpressing Bcl-3; format: cell-based, human; conditions: for IC50: MDA-MB-231 overexpressing Bcl-3, 24 hrs then reporter 48 hrs, read-out: IC50 NF-κB activity
Experimental: For NF-κB luciferase assays, cells were seeded into clear bottom black 96-well plates (Corning Inc., Lowell, US) in antibiotic free culture media in appropriate density. After 24 hrs, cells were transfected with 10 ng of 3×κB luciferase plasmid and 10 ng of pcDNA3.1-Lacl plasmid per well. Empty pcDNA3.1 plasmid was also included to normalize the total weight of DNA transfected to 100 ng. For positive and negative controls respectively, 10 ng of pGL3control or pGL3basic were transfected in place of 3×KB luciferase plasmid. Transfection was carried out using Lipofectamine LTX reagents (Invitrogen, Paisley, UK).
After 48 hrs post-transfection with luciferase reporter plasmid, the media was aspirated and cells were lyzed using 50 μl/well of Glo-lysis buffer (Promega, Southampton, UK). The plate was left on a rocker for 20 min to facilitate complete cell lysis. Then, 20 μl of lysate from each well was removed and transferred into a new clear bottom black well plate for measuring LacZ activity as a transfection efficiency control and followed by addition of 20 ul/well of Beta-Glo substrate (Promega, Southampton, UK) and cultivation at room temperature for at least 20 min. Subsequently, 30 μl/well of Bright-Glo luciferase substrate (Promega, Southampton, UK) was added to the original plate and asses immediately for luminescence activity. The luminescence produced from either reaction was read using a Flurostar Optima plate reader (BMG tabtech, Bucks, UK).
The effect of Compound 1a on NF-κB activity was determined by NF-κB luciferase assay in MDA-MB-231 and HEK-293 cells overexpressing Bcl-3 and HEK-293 cells overexpressing p52. Cells were cultivated with Compound 1a over a range of molarities for 24 hrs before being transfected with NF-κB luciferase reporter plasmid for 48 hrs and analyzed for NF-κB activity.
The effect of selected analogues on NF-κB activity was determined by NF-KB luciferase assay in MDA-MB-231 cells. MDA-MB-231 Bcl-3 over-expressing cells were cultivated with compounds from series 1-3 at 1 μM concentration for 24 hrs before being transfected with NF-κB luciferase reporter plasmid for 48 hrs together with controls and analyzed for NF-κB activity.
Based on the results for the series of analogues, we have established dose response curve for selected analogues from series 1 (If), from series 2 (2a and 2c) and from series 3 (3a) over a range of molarities. MDA-MB-231 Bcl-3 WT cells were cultivated with selected compounds from series 1-3 over a range of molarities for 24 hrs before being transfected with NF-κB luciferase reporter plasmid for 48 hrs together with controls and analyzed for NF-κB activity (FIG. 7).

MDA-MB-231 cells = conditions: 10 µM
Experimental: as §1, §2, §3, §4

Row | IC50 (NF-κB activity) [nM] | Compound | viability at 24 h, 10 µM [1] [%] | viability at 24 h, 10 µM [2] [%] | other results
1 | – | COc1cccc(C(=O)Nc2ccccc2C(=O)NCCN2CCOCC2)c1 [Compound 1e, 2-[(3-methoxybenzoyl)amino]-N-(2-morpholin-4-ylethyl)benzamide] | > 70 | > 70 | –
2 | 706 | O=C(NCCN1CCOCC1)c1ccccc1NC(=O)c1c(F)cccc1F [Compound 1p, 2,6-difluoro-N-(2-[(2-morpholin-4-ylethyl)carbamoyl]phenyl) benzamide] | – | – | –
3 | – | O=C(NCCN1CCOCC1)c1ccccc1NC(=O)c1ccccc1[N+](=O)[O-] [Compound 1g, 2-[(2-nitrobenzoyl)amino]-N-(2-morpholin-4-ylethyl)benzamide] | > 70 | > 70 | –
4 | 238 | O=C(Nc1ccccc1C(=O)NCCN1CCOCC1)c1cc(F)cc(F)c1 [Compound 1o, 3,5-difluoro-N-(2-[(2-morpholin-4-ylethyl)carbamoyl]phenyl) benzamide] | – | – | –
5 | – | O=C(Nc1ccccc1C(=O)NCCN1CCOCC1)c1ccc([N+](=O)[O-])cc1 [Compound 1i, 2-[(4-nitrobenzoyl)amino]-N-(2-morpholin-4-ylethyl) benzamide] | – | – | cell viability (MDA-MB-231 cells): above 70%
6 | – | O=C(Nc1ccccc1C(=O)NCCN1CCOCC1)c1ccc(F)cc1 [Compound 1c, 2-[(4-fluorobenzoyl)amino]-N-(2-morpholin-4-ylethyl)benzamide] | > 70 | > 70 | –
7 | 989 | O=C(Nc1ccccc1C(=O)NCCN1CCOCC1)c1ccc(F)cc1F [Compound 1q, 2,4-difluoro-N-(2-[(2-morpholin-4-ylethyl)carbamoyl]phenyl) benzamide] | – | – | –
8 | – | O=C(Nc1ccc(I)cc1C(=O)NCCN1CCOCC1)c1ccccc1F [Compound 3c, 2-[(2-fluorobenzoyl)amino]-5-iodo-N-(2-morpholin-4-ylethyl)benzamide] | – | – | effect on NF-κB activity (NF-κB activity; 1 μM, 24 hrs, MDA-MB-231 Bcl-3 over-expressing cells, vs DMSO control / Compound 1a): significant decrease in NF-κB activity
